From PubChem BioAssay AID1963866 (Molecular Pharmacology Branch, DTP, NCI, 2024)

Tested on: PDC KRAS tumor spheroids with HUVEC/MSC, viability
Experiment: Anticancer human tumor 349418-098-R-PDC patient-derived lung adenocarcinoma cell line growth inhibition [KRAS2]
Settings: for IC50: curve of first compound; for viability, T/C: stronger effect = lower value
Text: Multicellular complex tumor spheroid response to RAS pathway inhibitors in combination with a targeted agents in patient-derived cell lines with oncogenic KRAS variants from multiple cancer types
A high-throughput screen of multi-cell type tumor spheroids was designed to identify active combinations of targeted small molecules and KRAS pathway inhibitors. Complex spheroids include a stromal component modeled by human endothelial cells (HUVEC) and fibroblasts modeled by human mesenchymal stem cells (MSCs). The concentration ranges selected for each drug and investigational agent were based upon clinically achievable concentrations if the clinical Cmax of the agent was known.
Compounds. The drugs and investigational agents: BI-3406 (NSC825286), BAY-293 (NSC824723), batoprotafib (TNO155; NSC825523), sotorasib (AMG 510; NSC818433), MRTX1257 (NSC819558), elimusertib (BAY 1895344; NSC800525), molibresib (GSK525762; NSC774829), temuterkib (LY3214996; NSC803410), venetoclax (NSC766270), alisertib (NSC759677), olaparib (NSC753686), talazoparib (NSC767125), erdafitinib (NSC781556), ipatasertib (NSC767898), cabozantinib (NSC761068), nintedanib (NSC756659), abemaciclib (NSC768073), docetaxel (NSC628503), trametinib (NSC758246), and sapanisertib (NSC764658) were obtained from the National Cancer Institute (NCI) Developmental Therapeutics Program Chemical Repository. The FDA-approved anticancer drug set is available from the Developmental Therapeutics Program. […] The stock solutions were prepared in dimethyl sulfoxide (DMSO, Sigma-Aldrich, St. Louis, MO, cat. D2650) at 800-fold the tested concentration and stored at -70 degrees C prior to their use. All drugs and investigational agents were tested over a range starting from a high concentration at or near the clinical Cmax and decreasing in half-log increments. If the clinical Cmax for an agent had not been determined, the highest concentration tested was 10 microM.
Cell Culture. All cells were maintained in an incubator at 37 degrees C and 5% CO2 with 95% humidity. The PDC lines were cultured according to standard operating procedures established by the NCI PDMR (https://pdmr.cancer.gov/sops/default.htm). Briefly, all PDCs were thawed and cultured in Matrigel-coated flasks prepared with a working solution of 1X Ham's F-12 nutrient mix, without supplementation (Invitrogen, Waltham, MA, cat. 11765054), 100 U/mL penicillin-streptomycin (Invitrogen, cat. 15140122), and 2.5% Matrigel (Corning Inc., Corning, NY, cat. 354248) for the first three passages. All PDCs were cultured in complete DMEM/F-12 media containing advanced DMEM/F-12 (Invitrogen, cat. 12634028), 4.9% defined fetal bovine serum, heat inactivated (HyClone Laboratories Inc., Logan, UT, cat. SH30070.03HI), 389 ng/mL hydrocortisone (Sigma-Aldrich, cat. H4001), 9.7 ng/mL human EGF recombinant protein (Invitrogen, cat. PHG0313), 23.4 microg/mL adenine (Sigma-Aldrich, cat. A2786), 97.3 U/mL penicillin-streptomycin (Invitrogen, cat. 15140122), 1.9 mM L-glutamine (Invitrogen, cat. 25030081), and 9.7 microM Y-27632 dihydrochloride (Tocris Bioscience, Bristol, United Kingdom, cat. 1254). The PDCs were cultured in complete DMEM/F12 media without 9.7 microM Y-27632 dihydrochloride for at least two passages prior to the screen. The established cell line HOP-62 was cultured in RPMI 1640 medium, HEPES (Invitrogen, cat. 22400105) with 10% defined fetal bovine serum (HyClone Laboratories Inc., cat. SH30070.03) and 2 mM L-glutamine (Invitrogen, cat. 25030081). The pooled donor HUVEC were cultured in endothelial cell growth medium 2 (PromoCell, Heidelberg, Germany, cat. C-22011) and the hMSC were cultured in mesenchymal stem cell growth medium 2 (PromoCell, cat. C-28009). For all experiments, HUVEC and hMSC were used at passages </=5, while the malignant cell lines were used at passages </=15. […]

[1] = second compound 0.1 µM, first compound 0.01 µM
[2] = second compound 0.1 µM, first compound 0.0316 µM
[3] = second compound 0.1 µM, first compound 0.1 µM
[4] = second compound 0.316 µM, first compound 0.01 µM
[5] = second compound 0.316 µM, first compound 0.0316 µM
[6] = second compound 0.316 µM, first compound 0.1 µM
[7] = second compound 1 µM, first compound 0.01 µM
[8] = second compound 1 µM, first compound 0.0316 µM
[9] = second compound 1 µM, first compound 0.1 µM
[10] = second compound 3.16 µM, first compound 0.01 µM
[11] = second compound 3.16 µM, first compound 0.0316 µM
[12] = second compound 3.16 µM, first compound 0.1 µM
[13] = second compound 10 µM, first compound 0.01 µM
[14] = second compound 10 µM, first compound 0.0316 µM
[15] = second compound 10 µM, first compound 0.1 µM
[16] = second compound 0.1 µM, first compound 0.316 µM
[17] = second compound 0.1 µM, first compound 1 µM
[18] = second compound 0.1 µM, first compound 3.16 µM
[19] = second compound 0.316 µM, first compound 0.316 µM
[20] = second compound 0.316 µM, first compound 1 µM
[21] = second compound 0.316 µM, first compound 3.16 µM
[22] = second compound 1 µM, first compound 0.316 µM
[23] = second compound 1 µM, first compound 1 µM
[24] = second compound 1 µM, first compound 3.16 µM
[25] = second compound 3.16 µM, first compound 0.316 µM
[26] = second compound 3.16 µM, first compound 1 µM
[27] = second compound 3.16 µM, first compound 3.16 µM
[28] = second compound 10 µM, first compound 0.316 µM
[29] = second compound 10 µM, first compound 1 µM
[30] = second compound 10 µM, first compound 3.16 µM
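Further: spheroids exposed to compounds for seven days before readout.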

| SMILES | IC50 (second compound 0.1 µM) [nM] | IC50 (second compound 0.316 µM) [nM] | IC50 (second compound 1 µM) [nM] | IC50 (second compound 3.16 µM) [nM] | IC50 (second compound 10 µM) [nM] | viability, T/C [1] [%] | viability, T/C [2] [%] | viability, T/C [3] [%] | viability, T/C [4] [%] | viability, T/C [5] [%] | viability, T/C [6] [%] | viability, T/C [7] [%] | viability, T/C [8] [%] | viability, T/C [9] [%] | viability, T/C [10] [%] | viability, T/C [11] [%] | viability, T/C [12] [%] | viability, T/C [13] [%] | viability, T/C [14] [%] | viability, T/C [15] [%] | also measured |
| --- | --- | --- | --- | --- | --- | --- | --- | --- | --- | --- | --- | --- | --- | --- | --- | --- | --- | --- | --- | --- | --- |
| CC(C)n1nc(-c2ccc3oc(N)nc3c2)c2c(N)ncnc21 + C=CC(=O)N1CCN(c2nc(=O)n(-c3c(C)ccnc3C(C)C)c3nc(-c4c(O)cccc4F)c(F)cc23)C(C)C1 | 0.827 | 0.865 | 0.551 | < 0.316 | < 0.316 | 9.72 | 7.63 | 6.75 | 8.07 | 7.39 | 6.37 | 8.07 | 6.75 | 6.16 | 7.68 | 6.06 | 6.09 | 7.31 | 6.65 | 6.48 | viability, T/C (second compound 0.1 µM, first compound 0.000316 µM): 87.7%; viability, T/C (second compound 0.1 µM, first compound 0.001 µM): 42.6%; viability, T/C (second compound 0.1 µM, first compound 0.00316 µM): 17.4%; viability, T/C (second compound 0.316 µM, first compound 0.000316 µM): 70.5%; viability, T/C (second compound 0.316 µM, first compound 0.001 µM): 47%; viability, T/C (second compound 0.316 µM, first compound 0.00316 µM): 19%; viability, T/C (second compound 1 µM, first compound 0.000316 µM): 68%; viability, T/C (second compound 1 µM, first compound 0.001 µM): 30.5%; viability, T/C (second compound 1 µM, first compound 0.00316 µM): 15.7%; viability, T/C (second compound 3.16 µM, first compound 0.000316 µM): 37.9%; viability, T/C (second compound 3.16 µM, first compound 0.001 µM): 35.5%; viability, T/C (second compound 3.16 µM, first compound 0.00316 µM): 10.3%; viability, T/C (second compound 10 µM, first compound 0.000316 µM): 26.1%; viability, T/C (second compound 10 µM, first compound 0.001 µM): 15.7%; viability, T/C (second compound 10 µM, first compound 0.00316 µM): 10.1% |
| CC(=O)OC12COC1CC(O)C1(C)C(=O)C(O)C3=C(C)C(OC(=O)C(O)C(NC(=O)OC(C)(C)C)c4ccccc4)CC(O)(C(OC(=O)c4ccccc4)C21)C3(C)C (stereo not given) + CNCc1ccccc1-c1csc(C(C)Nc2nc(C)nc3cc(OC)c(OC)cc23)c1 | < 10 | < 10 | < 10 | < 10 | < 10 | 13.4 | 14.8 | 18.9 | 10.7 | 13.9 | 15.6 | 11 | 15.3 | 15 | 8.03 | 0.13 | 0.09 | 0.19 | 0.12 | 0.12 | viability, T/C [16]: 17.3%; viability, T/C [17]: 22%; viability, T/C [18]: 24.9%; viability, T/C [19]: 17.8%; viability, T/C [20]: 21%; viability, T/C [21]: 21.6%; viability, T/C [22]: 21.2%; viability, T/C [23]: 23.8%; viability, T/C [24]: 24.2%; viability, T/C [25]: 0.15%; viability, T/C [26]: 0.1%; viability, T/C [27]: 23.6%; viability, T/C [28]: 0.17%; viability, T/C [29]: 22.6%; viability, T/C [30]: 0.21% |
| COc1cc2nccc(Oc3ccc(NC(=O)C4(C(=O)Nc5ccc(F)cc5)CC4)cc3)c2cc1OC + CNCc1ccccc1-c1csc(C(C)Nc2nc(C)nc3cc(OC)c(OC)cc23)c1 | 1570 | 1640 | 596 | < 31.6 | < 31.6 |  | 101 | 99.5 |  | 97.4 | 95 |  | 95.4 | 93.9 |  | 0.14 | 0.09 |  | 0.08 | 0.07 | viability, T/C [16]: 95.4%; viability, T/C [17]: 73.3%; viability, T/C [18]: 9.71%; viability, T/C (second compound 0.1 µM, first compound 10 µM): 18.6%; viability, T/C [19]: 85.5%; viability, T/C [20]: 79.6%; viability, T/C [21]: 7.07%; viability, T/C (second compound 0.316 µM, first compound 10 µM): 14.3%; viability, T/C [22]: 78.4%; viability, T/C [23]: 26.9%; viability, T/C [24]: 0.88%; viability, T/C (second compound 1 µM, first compound 10 µM): 1.04%; viability, T/C [25]: 0.12%; viability, T/C [26]: 0.04%; viability, T/C [27]: 0.12%; viability, T/C (second compound 3.16 µM, first compound 10 µM): 0.08%; viability, T/C [28]: 0.08%; viability, T/C [29]: 0.24%; viability, T/C [30]: 0.07%; viability, T/C (second compound 10 µM, first compound 10 µM): 0.13% |
